Measured values: patent publication US8192962B2, “Processes for detecting toxic substances” (Daikin Industries, Ltd., priority 2001, dated 2012)

System: Genes belonging to other category
Assay: DNA chip mRNA expression in yeast, genes belonging to other category (Table 9)
Format: cell-based, Saccharomyces cerevisiae S288C
Method in brief: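 Chemical exposure: 2 h, log-phase S. cerevisiae S288C, YPD, 25° C., dose set to inhibit growth without death. Profiling: mRNA labeled by reverse transcription with Cy3- or Cy5-dUTP, hybridized to whole-genome array. Output: fluorescence ratio against untreated culture.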

Oc1cc(Cl)c(Cl)cc1Cl [(6), 2,4,5-trichlorophenol]
The level of expressed mRNA in the presence of chemical substance/The level of expressed mRNA in the absence of chemical substance (yeast gene YAR010C): 2.3 | The level of expressed mRNA in the presence of chemical substance/The level of expressed mRNA in the absence of chemical substance (yeast gene YBL005W-A): 1.2 | The level of expressed mRNA in the presence of chemical substance/The level of expressed mRNA in the absence of chemical substance (yeast gene YBL041W): 1.7 | The level of expressed mRNA in the presence of chemical substance/The level of expressed mRNA in the absence of chemical substance (yeast gene YBL043W): 26.9 | The level of expressed mRNA in the presence of chemical substance/The level of expressed mRNA in the absence of chemical substance (yeast gene YBL078C): 2.4 | The level of expressed mRNA in the presence of chemical substance/The level of expressed mRNA in the absence of chemical substance (yeast gene YBL101W-A): 1.4 | The level of expressed mRNA in the presence of chemical substance/The level of expressed mRNA in the absence of chemical substance (yeast gene YBR170C): 1.4 | The level of expressed mRNA in the presence of chemical substance/The level of expressed mRNA in the absence of chemical substance (yeast gene YBR173C): 1.3 | The level of expressed mRNA in the presence of chemical substance/The level of expressed mRNA in the absence of chemical substance (yeast gene YBR212W): 1.4 | The level of expressed mRNA in the presence of chemical substance/The level of expressed mRNA in the absence of chemical substance (yeast gene YBR214W): 0.8 | The level of expressed mRNA in the presence of chemical substance/The level of expressed mRNA in the absence of chemical substance (yeast gene YCL020W): 1.0 | The level of expressed mRNA in the presence of chemical substance/The level of expressed mRNA in the absence of chemical substance (yeast gene YCL027W): 1.3 | The level of expressed mRNA in the presence of chemical substance/The level of expressed mRNA in the absence of chemical substance (yeast gene YCR004C): 1.8 | The level of expressed mRNA in the presence of chemical substance/The level of expressed mRNA in the absence of chemical substance (yeast gene YCR069W): 1.4 | The level of expressed mRNA in the presence of chemical substance/The level of expressed mRNA in the absence of chemical substance (yeast gene YCR071C): 2.5 | The level of expressed mRNA in the presence of chemical substance/The level of expressed mRNA in the absence of chemical substance (yeast gene YCR088W): 2.0 | The level of expressed mRNA in the presence of chemical substance/The level of expressed mRNA in the absence of chemical substance (yeast gene YCR106W): 1.4 | The level of expressed mRNA in the presence of chemical substance/The level of expressed mRNA in the absence of chemical substance (yeast gene YDL008W): 2.7 | The level of expressed mRNA in the presence of chemical substance/The level of expressed mRNA in the absence of chemical substance (yeast gene YDL018C): 1.4 | The level of expressed mRNA in the presence of chemical substance/The level of expressed mRNA in the absence of chemical substance (yeast gene YDL143W): 1.0 | The level of expressed mRNA in the presence of chemical substance/The level of expressed mRNA in the absence of chemical substance (yeast gene YDL220C): 1.8 | The level of expressed mRNA in the presence of chemical substance/The level of expressed mRNA in the absence of chemical substance (yeast gene YDL230W): 0.9 | The level of expressed mRNA in the presence of chemical substance/The level of expressed mRNA in the absence of chemical substance (yeast gene YDL238C): 2.1 | The level of expressed mRNA in the presence of chemical substance/The level of expressed mRNA in the absence of chemical substance (yeast gene YDR055W): 3.9 | The level of expressed mRNA in the presence of chemical substance/The level of expressed mRNA in the absence of chemical substance (yeast gene YDR084C): 2.1 | The level of expressed mRNA in the presence of chemical substance/The level of expressed mRNA in the absence of chemical substance (yeast gene YDR085C): 2.1 | The level of expressed mRNA in the presence of chemical substance/The level of expressed mRNA in the absence of chemical substance (yeast gene YDR104C): 1.7 | The level of expressed mRNA in the presence of chemical substance/The level of expressed mRNA in the absence of chemical substance (yeast gene YDR115W): 2.3 | The level of expressed mRNA in the presence of chemical substance/The level of expressed mRNA in the absence of chemical substance (yeast gene YDR212W): 1.4 | The level of expressed mRNA in the presence of chemical substance/The level of expressed mRNA in the absence of chemical substance (yeast gene YDR259C): 0.5 | The level of expressed mRNA in the presence of chemical substance/The level of expressed mRNA in the absence of chemical substance (yeast gene YDR264C): 1.8 | The level of expressed mRNA in the presence of chemical substance/The level of expressed mRNA in the absence of chemical substance (yeast gene YDR315C): 9.4 | The level of expressed mRNA in the presence of chemical substance/The level of expressed mRNA in the absence of chemical substance (yeast gene YDR358W): 2.5 | The level of expressed mRNA in the presence of chemical substance/The level of expressed mRNA in the absence of chemical substance (yeast gene YDR388W): 1.0 | The level of expressed mRNA in the presence of chemical substance/The level of expressed mRNA in the absence of chemical substance (yeast gene YDR403W): 1.1 | The level of expressed mRNA in the presence of chemical substance/The level of expressed mRNA in the absence of chemical substance (yeast gene YDR432W): 0.6 | The level of expressed mRNA in the presence of chemical substance/The level of expressed mRNA in the absence of chemical substance (yeast gene YDR481C): 0.9 | The level of expressed mRNA in the presence of chemical substance/The level of expressed mRNA in the absence of chemical substance (yeast gene YDR510W): 1.0 | The level of expressed mRNA in the presence of chemical substance/The level of expressed mRNA in the absence of chemical substance (yeast gene YEL042W): 0.5 | The level of expressed mRNA in the presence of chemical substance/The level of expressed mRNA in the absence of chemical substance (yeast gene YEL066W): 2.2 | The level of expressed mRNA in the presence of chemical substance/The level of expressed mRNA in the absence of chemical substance (yeast gene YER021W): 1.1 | The level of expressed mRNA in the presence of chemical substance/The level of expressed mRNA in the absence of chemical substance (yeast gene YER039C): 1.6 | The level of expressed mRNA in the presence of chemical substance/The level of expressed mRNA in the absence of chemical substance (yeast gene YER078C): 1.4 | The level of expressed mRNA in the presence of chemical substance/The level of expressed mRNA in the absence of chemical substance (yeast gene YER094C): 1.1 | The level of expressed mRNA in the presence of chemical substance/The level of expressed mRNA in the absence of chemical substance (yeast gene YER107C): 2.5 | The level of expressed mRNA in the presence of chemical substance/The level of expressed mRNA in the absence of chemical substance (yeast gene YER130C): 2.7 | The level of expressed mRNA in the presence of chemical substance/The level of expressed mRNA in the absence of chemical substance (yeast gene YFL022C): 0.9 | The level of expressed mRNA in the presence of chemical substance/The level of expressed mRNA in the absence of chemical substance (yeast gene YFL028C): 1.7 | The level of expressed mRNA in the presence of chemical substance/The level of expressed mRNA in the absence of chemical substance (yeast gene YFL038C): 1.3 | The level of expressed mRNA in the presence of chemical substance/The level of expressed mRNA in the absence of chemical substance (yeast gene YFL043C): 1.8 | The level of expressed mRNA in the presence of chemical substance/The level of expressed mRNA in the absence of chemical substance (yeast gene YFR051C): 0.2 | The level of expressed mRNA in the presence of chemical substance/The level of expressed mRNA in the absence of chemical substance (yeast gene YGL056C): 0.4 | The level of expressed mRNA in the presence of chemical substance/The level of expressed mRNA in the absence of chemical substance (yeast gene YGL093W): 1.0 | The level of expressed mRNA in the presence of chemical substance/The level of expressed mRNA in the absence of chemical substance (yeast gene YGL150C): 1.1 | The level of expressed mRNA in the presence of chemical substance/The level of expressed mRNA in the absence of chemical substance (yeast gene YGL158W): 0.4 | The level of expressed mRNA in the presence of chemical substance/The level of expressed mRNA in the absence of chemical substance (yeast gene YGL166W): 1.0 | The level of expressed mRNA in the presence of chemical substance/The level of expressed mRNA in the absence of chemical substance (yeast gene YGL229C): 2.2 | The level of expressed mRNA in the presence of chemical substance/The level of expressed mRNA in the absence of chemical substance (yeast gene YGR136W): 1.1 | The level of expressed mRNA in the presence of chemical substance/The level of expressed mRNA in the absence of chemical substance (yeast gene YGR189C): 0.5 | The level of expressed mRNA in the presence of chemical substance/The level of expressed mRNA in the absence of chemical substance (yeast gene YGR213C): 4.1 | The level of expressed mRNA in the presence of chemical substance/The level of expressed mRNA in the absence of chemical substance (yeast gene YGR253C): 1.4 | The level of expressed mRNA in the presence of chemical substance/The level of expressed mRNA in the absence of chemical substance (yeast gene YGR257C): 2.1 | The level of expressed mRNA in the presence of chemical substance/The level of expressed mRNA in the absence of chemical substance (yeast gene YHR004C): 2.0 | The level of expressed mRNA in the presence of chemical substance/The level of expressed mRNA in the absence of chemical substance (yeast gene YHR027C): 0.4 | The level of expressed mRNA in the presence of chemical substance/The level of expressed mRNA in the absence of chemical substance (yeast gene YHR028C): 0.9 | The level of expressed mRNA in the presence of chemical substance/The level of expressed mRNA in the absence of chemical substance (yeast gene YHR071W): 2.0 | The level of expressed mRNA in the presence of chemical substance/The level of expressed mRNA in the absence of chemical substance (yeast gene YHR082C): 0.8 | The level of expressed mRNA in the presence of chemical substance/The level of expressed mRNA in the absence of chemical substance (yeast gene YHR136C): 1.4 | The level of expressed mRNA in the presence of chemical substance/The level of expressed mRNA in the absence of chemical substance (yeast gene YHR139C): 1.9 | The level of expressed mRNA in the presence of chemical substance/The level of expressed mRNA in the absence of chemical substance (yeast gene YHR142W): 1.2 | The level of expressed mRNA in the presence of chemical substance/The level of expressed mRNA in the absence of chemical substance (yeast gene YHR160C): 1.0 | The level of expressed mRNA in the presence of chemical substance/The level of expressed mRNA in the absence of chemical substance (yeast gene YHR166C): 1.8 | The level of expressed mRNA in the presence of chemical substance/The level of expressed mRNA in the absence of chemical substance (yeast gene YHR205W): 1.0 | The level of expressed mRNA in the presence of chemical substance/The level of expressed mRNA in the absence of chemical substance (yeast gene YIL015W): 0.4 | The level of expressed mRNA in the presence of chemical substance/The level of expressed mRNA in the absence of chemical substance (yeast gene YIL075C): 0.8 | The level of expressed mRNA in the presence of chemical substance/The level of expressed mRNA in the absence of chemical substance (yeast gene YIL123W): 0.5 | The level of expressed mRNA in the presence of chemical substance/The level of expressed mRNA in the absence of chemical substance (yeast gene YIL129C): 0.3 | The level of expressed mRNA in the presence of chemical substance/The level of expressed mRNA in the absence of chemical substance (yeast gene YIL140W): 0.5 | The level of expressed mRNA in the presence of chemical substance/The level of expressed mRNA in the absence of chemical substance (yeast gene YIL142W): 1.1 | The level of expressed mRNA in the presence of chemical substance/The level of expressed mRNA in the absence of chemical substance (yeast gene YIR009W): 1.4 | The level of expressed mRNA in the presence of chemical substance/The level of expressed mRNA in the absence of chemical substance (yeast gene YJL073W): 2.0 | The level of expressed mRNA in the presence of chemical substance/The level of expressed mRNA in the absence of chemical substance (yeast gene YJL089W): 1.6 | The level of expressed mRNA in the presence of chemical substance/The level of expressed mRNA in the absence of chemical substance (yeast gene YJL116C): 3.4
